Reference: patent USRE37999E1, “20-(B)-20,25-dihydroperoxy-3β-hydroxycholest-5-ene and 20-(S)-20,25-dihydroperoxy-3β-hydroxycholest-5-ene” (Iowa State University Research Foundation, Inc., priority 1988, dated 2003)
Where “and” joins values, the source holds several entries; their conditions need not be identical. Equal entries are not always repeated.

Experiments:
calmodulin = calmodulin (Homo sapiens, UniProt P0DP23); experiment: Inhibition of calmodulin activity (method of Leung et al. 1984); format: biochemical
Protocol: The inhibition of calmodulin activity by A and B were measured using the method described by Leung et al. (1984) and the results are shown in Table 1.
In still another experiment, inhibition of calmodulin by the same cholesterol hydroperoxides was tested. The calmodulin inhibition was assayed as described by Leung et al. (J. Biol. Chem., 259:2742-2747, 1984).

[1] = test system: mouse peritoneal macrophages; experiment: Esterification of cholesterol in mouse peritoneal macrophages (3H-oleate incorporation into cholesteryl ester); format: cell-based; conditions: 15 min preincubation
Protocol: The effects of cholesterol hydroperoxides on the esterification of cholesterol in mouse peritoneal macrophages was tested as follows:
Monolayers of mouse peritoneal macrophages were pretreated with various concentration of ⟦deleted by reissue: 20-(S)-hydroperoxy-cholest-5-ene-3β,25-diol hydroxycholesterol (A) or 20-(R)-hydroperoxycholest-5-ene-3β,25 diol (B) ⟧ 20-(S)-20,25-dihydroperoxy-3β-hydroxycholest-5-ene-(A) or 20-(R)-20,25-dihydroperoxy-3β-hydroxycholest-5-ene (B) at 37° C. After 15 min preincubation, medium M199 providing 2.5% fetal calf serum, acetyl-LDL (25 μg protein/ml) and ^3H-oleate (0.25 μCi/ml) was added to the culture dishes. After 6 hr of incubation with 5% CO2 at 37° C. the cellular lipids were extracted. This layer chromatography was used to separate cholesteryl ester from other lipid classes before the radioactivity was determined. The activities reported have been corrected for losses during chromatography and elution of the thin-layer plates.

[2] = test system: mouse peritoneal macrophages; experiment: Time course of incorporation of 3H-oleate into cholesterol esters by mouse peritoneal macrophages; format: cell-based; conditions: for inhibition of 3H-oleate incorporation into cholesterol esters (in words): 50 μM compound A or 25 μM compound B
Protocol: In a further experiment, the time course of incorporation of ^3H-oleate into the same cholesterol esters by mouse peritoneal macrophages was studied. Mouse peritoneal macrophages were gorwn in M199 medium containing 2.5% fetal calf serum and acetyl-LDL (25 μg protein/ml) for 18 hr at 37° C. The medium was then replaced by M199 containing 2.5% fetal calf serum; ^3H-oleate with 50 μM compound A or 25 μM compound B or no hydroperoxide. At the time intervals indicated, the medium was aspirated and the cellular lipid was extracted and analyzed by thin-layer chromatography.

[3] = test system: acyl-Coenzyme-A:cholesterol acyltransferase (ACAT); experiment: Inhibition of ACAT in mouse liver microsomes (14C-oleoyl-Coenzyme A); format: biochemical; conditions: 15 min pretreatment
Protocol: In another experiment, the inhibition of ⟦deleted by reissue: acrylCoenzyme-A:cholesterol ⟧ acyl-Coenzyme-A:cholesterol acyltransferase (ACAT) by cholesterol hydroperoxides, compounds A and B was used. Mouse liver microsomes (140 μg protein/assay) were treated with various concentrations of compounds A and B for 15 min prior to starting the assay by the addition of ^14C-oleoyl-Coenzyme A (41 μM, 0.068 μCi/assay). The reaction was carried on at 37° C. for exactly 5 min. then terminated by the addition of chloroform and methanol. The cellular lipids were extracted and separated by thin-layer chromatography.

[4] = test system: rabbits fed an atherogenic diet; conditions: cited from earlier work
[5] = 0.01 μg compound preincubated with 0.3 units calmodulin, assay 30 C, 30 min
[6] = 0.1 μg compound preincubated with 0.3 units calmodulin, assay 30 C, 30 min
[7] = 1 μg compound preincubated with 0.3 units calmodulin, assay 30 C, 30 min
[8] = 2.5 μM hydroperoxide, 6 hr incubation with acetyl-LDL and 3H-oleate
[9] = 5 μM hydroperoxide, 6 hr incubation
[10] = 10 μM hydroperoxide, 6 hr incubation
[11] = 25 μM hydroperoxide, 6 hr incubation
[12] = 50 μM hydroperoxide, 6 hr incubation
[13] = 75 μM hydroperoxide, 6 hr incubation
[14] = 100 μM hydroperoxide, 6 hr incubation
[15] = 2.5 μM, 5 min reaction at 37° C
[16] = Table 1, Control + EDTA, amount not given
[17] = Table 9, EGTA, amount not given

SMILES | % inhibition (calmodulin; [5]) [%] | nmole P produced^i (calmodulin; [5]) [nmol] | % inhibition (calmodulin; [6]) [%] | nmole P produced^i (calmodulin; [6]) [nmol] | % inhibition (calmodulin; [7]) [%] | nmole P produced^i (calmodulin; [7]) [nmol] | % inhibition (calmodulin; Table 9, 0.1 μg) [%] | nmoles phosphate produced (calmodulin; Table 9, 0.1 μg) [nmol] | % inhibition (calmodulin; Table 9, 1 μg) [%] | nmoles phosphate produced (calmodulin; Table 9, 1 μg) [nmol] | Counts per min 3H incorporated into cholesteryl ester [1, 8] | Counts per min 3H incorporated into cholesteryl ester [1, 9] [Counts per min] | Counts per min 3H incorporated into cholesteryl ester [1, 10] | Counts per min 3H incorporated into cholesteryl ester [1, 11] | Counts per min 3H incorporated into cholesteryl ester [1, 12] [Counts per min] | Counts per min 3H incorporated into cholesteryl ester [1, 13] | Counts per min 3H incorporated into cholesteryl ester [1, 14] | inhibition of 3H-oleate incorporation into cholesterol esters (in words) ([2]; 5 min) | Counts per minute in cholesterol esters [3, 15] | Counts per minute in cholesterol esters ([3]; 5 μM, 5 min reaction) | also measured
CC(C)(CCC[C@](C)(OO)[C@H]1CC[C@H]2[C@@H]3CC=C4C[C@@H](O)CC[C@]4(C)[C@H]3CC[C@@]21C)OO [Compound A, 20-(S)-20,25-dihydroperoxy-3β-hydroxycholest-5-ene] | 28 | 22.9 | 68 | 16.1 | 92 | 12.1 | 68 | 16.1 | 92 | 12.1 | 55816 Counts per min and 47673 Counts per min | 59136 | 33700 Counts per min and 29618 Counts per min | 14510 Counts per min and 17621 Counts per min | 6059 | 5074 Counts per min and 5047 Counts per min | 2830 Counts per min and 3970 Counts per min | apparent at the shortest time samples | 4702 Counts per minute and 4651 Counts per minute | 4109 Counts per minute and 3420 Counts per minute | % inhibition (calmodulin; Table 9, 0.01 μg): 28%; nmoles phosphate produced (calmodulin; Table 9, 0.01 μg): 22.9 nmol; Counts per minute in cholesterol ester ([2]; 50 μM compound A, 5 min): 2627 Counts per minute and 1994 Counts per minute; Counts per minute in cholesterol ester ([2]; 50 μM compound A, 10 min): 2462 Counts per minute and 3092 Counts per minute; Counts per minute in cholesterol ester ([2]; 50 μM compound A, 20 min): 5223 Counts per minute and 6049 Counts per minute; Counts per minute in cholesterol ester ([2]; 50 μM compound A, 30 min): 4007 Counts per minute and 2937 Counts per minute; Counts per minute in cholesterol ester ([2]; 50 μM compound A, 60 min): 4088 Counts per minute and 5295 Counts per minute; Counts per minute in cholesterol ester ([2]; 50 μM compound A, 120 min): 7269 Counts per minute and 10036 Counts per minute; Counts per minute in cholesterol ester ([2]; 50 μM compound A, 240 min): 19627 Counts per minute and 17564 Counts per minute; Counts per minute in cholesterol esters ([3]; 10 μM, 5 min reaction): 3033 Counts per minute and 5422 Counts per minute; Counts per minute in cholesterol esters ([3]; 16.7 μM, 5 min reaction): 1643 Counts per minute and 1206 Counts per minute; Counts per minute in cholesterol esters ([3]; 20 μM, 5 min reaction): 1652 Counts per minute and 1708 Counts per minute; Counts per minute in cholesterol esters ([3]; 25 μM, 5 min reaction): 1121 Counts per minute and 652 Counts per minute; Counts per minute in cholesterol esters ([3]; 33.3 μM, 5 min reaction): 841 Counts per minute and 1141 Counts per minute; Counts per minute in cholesterol esters ([3]; 50 μM, 5 min reaction): 632 Counts per minute and 573 Counts per minute; Counts per minute in cholesterol esters ([3]; 100 μM, 5 min reaction): 304 Counts per minute and 297 Counts per minute
CC(C)(CCC[C@@](C)(OO)[C@H]1CC[C@H]2[C@@H]3CC=C4C[C@@H](O)CC[C@]4(C)[C@H]3CC[C@@]21C)OO [Compound B, 20-(R)-20,25-dihydroperoxy-3β-hydroxycholest-5-ene] | 4 | 26.9 | 61 | 17.3 | 81 | 13.8 | 61 | 17.3 | 81 | 13.8 | 41574 Counts per min and 34918 Counts per min | 32751 | 25140 Counts per min and 16252 Counts per min | 7752 Counts per min and 6232 Counts per min | 4073 | 3177 Counts per min and 3385 Counts per min | 4427 Counts per min and 2401 Counts per min | apparent at the shortest time samples | 4557 Counts per minute and 3518 Counts per minute | 1786 Counts per minute and 2336 Counts per minute | % inhibition (calmodulin; Table 9, 0.001 μg): 4%; nmoles phosphate produced (calmodulin; Table 9, 0.001 μg): 26.9 nmol; Counts per minute in cholesterol ester ([2]; 25 μM compound B, 5 min): 2218 Counts per minute and 1256 Counts per minute; Counts per minute in cholesterol ester ([2]; 25 μM compound B, 10 min): 2560 Counts per minute and 2019 Counts per minute; Counts per minute in cholesterol ester ([2]; 25 μM compound B, 20 min): 3245 Counts per minute and 4788 Counts per minute; Counts per minute in cholesterol ester ([2]; 25 μM compound B, 30 min): 3202 Counts per minute and 2943 Counts per minute; Counts per minute in cholesterol ester ([2]; 25 μM compound B, 60 min): 5054 Counts per minute and 7341 Counts per minute; Counts per minute in cholesterol ester ([2]; 25 μM compound B, 120 min): 7534 Counts per minute and 9160 Counts per minute; Counts per minute in cholesterol ester ([2]; 25 μM compound B, 240 min): 18532 Counts per minute and 15819 Counts per minute; Counts per minute in cholesterol esters ([3]; 10 μM, 5 min reaction): 2499 Counts per minute and 1896 Counts per minute; Counts per minute in cholesterol esters ([3]; 16.7 μM, 5 min reaction): 920 Counts per minute and 964 Counts per minute; Counts per minute in cholesterol esters ([3]; 25 μM, 5 min reaction): 500 Counts per minute and 720 Counts per minute; Counts per minute in cholesterol esters ([3]; 33.3 μM, 5 min reaction): 429 Counts per minute and 563 Counts per minute; Counts per minute in cholesterol esters ([3]; 50 μM, 5 min reaction): 315 Counts per minute and 294 Counts per minute; Counts per minute in cholesterol esters ([3]; 100 μM, 5 min reaction): 131 Counts per minute and 244 Counts per minute
O=C(O)CN(CCN(CC(=O)O)CC(=O)O)CC(=O)O [EDTA, reference compound] | – | – | – | – | – | – | – | – | – | – | – | – | – | – | – | – | – | – | – | – | % inhibition (calmodulin; [16]): 100%; nmole P produced^i (calmodulin; [16]): 10.7 nmol
O=C(O)CN(CCOCCOCCN(CC(=O)O)CC(=O)O)CC(=O)O [EGTA, reference compound] | – | – | – | – | – | – | – | – | – | – | – | – | – | – | – | – | – | – | – | – | % inhibition (calmodulin; [17]): 100%; nmoles phosphate produced (calmodulin; [17]): 10.7 nmol
CN(C)CCCN1c2ccccc2Sc2ccc(Cl)cc21 [chlorpromazine] | – | – | – | – | – | – | – | – | – | – | – | – | – | – | – | – | – | – | – | – | blood cholesterol [4]: without lowering of blood cholesterol; development of atherosclerotic lesions [4]: reduced the development of such lesions
